Measured values from patent US20070043076A1, “Substituted 2-arylmethylene-n-aryl-n'aryl-malonamides and analogs as activators of caspases and inducers of apoptosis” (priority 2003, published 2007).
pEC50: −log10 of the molar value.

Columns and labels:
T-47D [1] = assay: Caspase cascade activation (Ac-DEVD-R110 fluorogenic substrate) in T-47D cells; format: cell-based, Human; conditions: 24 h incubation
Description: (§1) Human breast cancer cell lines T-47D and ZR-75-1 were grown according to media component mixtures designated by American Type Culture Collection +10% FCS (Invitrogen Corporation), in a 5% CO2-95% humidity incubator at 37° C. T-47D and ZR-75-1 cells were maintained at a cell density between 30 and 80% confluency and for HL-60 at a cell density of 0.1 to 0.6×10^6 cells/mL. Cells were harvested at 600×g and resuspended at 0.65×10^6 cells/mL into appropriate media +10% FCS. An aliquot of 45 μL of cells was added to a well of a 96-well microtiter plate containing 5 μL of a 10% DMSO in RPMI-1640 media solution containing 1.6 to 100 μM of N,N′-bis-(3-trifluoromethyl-phenyl)-2-(4-isopropyl-benzylidene)-malonamide or other test compound (0.16 to 10 μM final). An aliquot of 45 μL of cells was added to a well of a 96-well microtiter plate containing 5 μL of a 10% DMSO in RPMI-1640 media solution without test compound as the control sample. The samples were mixed by agitation and then incubated at 37° C. for 24 h in a 5% CO2-95% humidity incubator. After incubation, the samples were removed from the incubator and […] of a solution containing 20 μM of N-(Ac-DEVD)-N′-ethoxycarbonyl-R110 fluorogenic substrate (SEQ ID NO:1) (Cytovia, Inc.; U.S. Pat. No. 6,335,429), 20% sucrose (Sigma), 20 mM DTT (Sigma), 200 mM NaCl (Sigma), 40 mM Na PIPES buffer pH 7.2 (Sigma), and 500 μg/mL lysolecithin (Calbiochem) was added. The samples were mixed by agitation and incubated at room temperature. Using a fluorescent plate reader (Model 1420 Wallac Instruments), an initial reading (T=0) was made approximately 1-2 min after addition of the substrate solution, employing excitation at 485 nm and emission at 530 nm, to determine the background fluorescence of the control sample. After approximately 3 h of incubation, the samples were read for fluorescence as above (T=3 h).
(§2) The relative Fluorescence Unit values (RFU) were used to calculate the sample readings as follows: RFU(T=3h)−Control RFU(T=0)=Net RFU(T=3h)
(§3) The activity of caspase cascade activation was determined by the ratio of the net RFU value for N,N′-bis-(3-trifluoromethyl-phenyl)-2-(4-isopropyl-benzylidene)-malonamide to that of control samples. The EC50 (nM) was determined by a sigmoidal dose-response calculation (Prism 2.0, GraphPad Software Inc.).

ZR-75-1 = assay: Caspase cascade activation (Ac-DEVD-R110 fluorogenic substrate) in ZR-75-1 cells; format: cell-based, Human; conditions: 24 h incubation
Description: as §1, §2, §3

T-47D [2] = assay: Inhibition of cell proliferation (GI50, CellTiter 96 AQueous One) in T-47D cells; format: cell-based; conditions: Homo sapiens, T47D, 48 h incubation, read-out: GI50 (dose for 50% inhibition of cell proliferation)
Description: (§4) T-47D and DLD-1 cells were grown and harvested as in Example 105. An aliquot of 90 μL of cells (2.2×10^4 cells/mL) was added to a well of a 96-well microtiter plate containing 10 μl of a 10% DMSO in RPMI-1640 media solution containing 1 nM to 100 μM of N,N′-bis-(3-trifluoromethyl-phenyl)-2-(4-isopropyl-benzylidene)-malonamide (0.1 nM to 10 μM final). An aliquot of 90 μL of cells was added to a well of a 96-well microtiter plate containing 10 μL of a 10% DMSO in RPMI-1640 media solution without compound as the control sample for maximal cell proliferation (AMax). The samples were mixed by agitation and then incubated at 37° C. for 48 h in a 5% CO2-95% humidity incubator. After incubation, the samples were removed from the incubator and 20 μL of CellTiter 96 AQUEOUS One Solution Cell Proliferation™ reagent (Promega) was added. The samples were mixed by agitation and incubated at 37° C. for 2-4 h in a 5% CO2-95% humidity incubator. Using an absorbance plate reader (Model 1420 Wallac Instruments), an initial reading (T=0) was made approximately 1-2 min after addition of the solution, employing absorbance at 490 nm. This determines the possible background absorbance of the test compounds. No absorbance for N,N′-bis-(3-trifluoromethyl-phenyl)-2-(4-isopropyl-benzylidene)-malonamide was found at 490 nm. After the 2-4 h incubation, the samples were read for absorbance as above (ATest).
(§5) Baseline for GI50 (dose for 50% inhibition of cell proliferation) of initial cell numbers were determined by adding an aliquot of 90 μL of cells or 90 μL of media, respectively, to wells of a 96-well microtiter plate containing 10 μL of a 10% DMSO in RPMI-1640 media solution. The samples were mixed by agitation and then incubated at 37° C. for 0.5 h in a 5% CO2-95% humidity incubator. After incubation, the samples were removed from the incubator and 20 μL of CellTiter 96 AQUEOUS One Solution Cell Proliferation™ reagent (Promega) was added. The samples were mixed by agitation and incubated at 37° C. for 2-4 h in a 5% CO2-95% humidity incubator. Absorbance was read as above, (AStart) defining absorbance for initial cell number used as baseline in GI50 determinations.
(§6) GI50 (dose for 50% inhibition of cell proliferation) is the concentration where [(ATest−AStart)/(AMax−AStart)]=0.5.

DLD-1 = assay: Inhibition of cell proliferation (GI50, CellTiter 96 AQueous One) in DLD-1 cells; format: cell-based; conditions: Homo sapiens, 48 h incubation, read-out: GI50 (dose for 50% inhibition of cell proliferation)
Description: as §4, §5, §6

Jurkat cells = assay: Drug induced apoptosis in Jurkat cells (propidium iodide flow cytometry); format: cell-based; conditions: 24 h
Description: FIGS. 1A-C are graphs showing drug induced apoptosis in Jurkat cells. FIG. 1A: control cells (DMSO treated) showing most of the cells in G1 (M2). FIG. 1B: cells treated with 0.5 μM of N,N′-bis-(3-trifluoromethyl-phenyl)-2-(4-isopropyl-benzylidene)-malonamide for 24 h showing 50% of the cells in M1 (subdiploid apoptotic cells). FIG. 1C: cells treated with 1 μM of N,N′-bis-(3-trifluoromethyl-phenyl)-2-(4-isopropyl-benzylidene)-malonamide for 24 h showing 77% of the cells in M1 (subdiploid apoptotic cells).
(§7) Jurkat cells were incubated with N,N′-bis-(3-trifluoromethyl-phenyl)-2-(4-isopropyl-benzylidene)-malonamide (0.5 μM and 1 μM) for 24 h under normal growth conditions; control cultures were treated with DMSO vehicle. Cells were harvested at 1200 rpm and washed twice with 5 mM EDTA/PBS. Cells were then resuspended in 300 μl EDTA/PBS and […] of 100% ethanol, vortexed and incubated at room temperature for 1 h. Samples were spun down at 12000 rpm for 5 min and the supernatant was removed. A solution containing 100 μg/ml of propidium iodide and 1 mg/ml of RNAse A (fresh) was added to the samples and incubated for 1 h at room temperature. Samples were then transferred to 12×75 mm polystyrene tubes and analysed on a flow cytometer. All flow cytometry analyses were performed on FACScalibur (Becton Dickinson) using Cell Quest analysis software.

T47D cells = assay: Drug induced apoptosis in T47D cells (propidium iodide flow cytometry); format: cell-based, Human; conditions: 1.7 μM, 24 h
Description: FIGS. 2A-B are graphs showing drug induced apoptosis in T47D cells. FIG. 2A: control cells (DMSO treated) showing most of the cells in G1 (M2). FIG. 2B: cells treated with 1.7 μM of N,N′-bis-(3-trifluoromethyl-phenyl)-2-(4-isopropyl-benzylidene)-malonamide for 24 h showing 88% of the cells in M1 (subdiploid apoptotic cells).
as §7
T47D breast cancer cell line was maintained and harvested as described in Example 105. […] Cells were harvested and treated with propidium iodide and analysed on a flow cytometer as described in Example 107.

[3] = ratio of net RFU to that of control samples

pEC50 (T-47D [1]; Homo sapiens, T47D, 0.16 to 10 μM final, read-out: Caspase potency EC50): 6.06
pEC50 (ZR-75-1; Homo sapiens, 0.16 to 10 μM final, read-out: Caspase potency EC50): 5.85
GI50 (T-47D [2]): 180 nM
GI50 (DLD-1): 200 nM
SMILES: CC(C)c1ccc(C=C(C(=O)Nc2cccc(C(F)(F)F)c2)C(=O)Nc2cccc(C(F)(F)F)c2)cc1 [Example 3, N,N′-Bis-(3-trifluoromethyl-phenyl)-2-(4-isopropyl-benzylidene)-malonamide]
Caspase Activity Ratio (T-47D [1]; [3]): 15
Caspase Activity Ratio (ZR-75-1; [3]): 17
induction of apoptosis (in words) (Jurkat cells; 0.5 μM and 1 μM): induces massive apoptosis
cells in M1 (subdiploid apoptotic cells) (Jurkat cells; 0.5 μM): 50%
cells in M1 (subdiploid apoptotic cells) (Jurkat cells; 1 μM): 77%
cells in M1 (subdiploid apoptotic cells) (T47D cells): 88%
induction of apoptosis (in words) (T47D cells): induces massive apoptosis
